The results in this text go back to PubChem BioAssay (NCI).

Several values for one entry are separate records, joined by “and”; a condition that tells them apart may be missing. Identical values can stand only once.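 Briefly, cells in 96-well plates were exposed to five compound concentrations for 48 h, and endpoints were estimated by linear interpolation. The concentration for 50% growth inhibition is given as GI50. Definition used: TGI = concentration required for complete inhibition of growth.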 Where only a bound is given, the exact number is not on record here.

Among the test systems are NCI-H23 lung; UO-31 renal; TK-10 renal; MDA-MB-435; SNB-19 CNS; K-562 leukemia; OVCAR-3 ovarian; RPMI-8226 leukemia; CAKI-1 renal; EKVX NSCLC.
What all share (assay): NCI anticancer screen, dose series, 48 h

Turning to `COC(=O)N[C@@H](C)CNc1nccc(-c2cn(C(C)C)nc2-c2cc(Cl)cc(NS(C)(=O)=O)c2F)n1`, the GI50 with NCI-H23 lung was above 51.3 µM; in the test on UO-31 renal, 4.57 µM; in the test with TK-10 renal, above 100 µM; in the test with MDA-MB-435, below 0.01 µM; with SNB-19 CNS, above 100 µM; in the test on K-562 leukemia, 33.6 µM. In addition, the GI50 was 62.8 µM in the test with OVCAR-3 ovarian, above 70 µM in the test with RPMI-8226 leukemia and 4.95 µM in the test on CAKI-1 renal. In addition, the TGI in the test with NCI-H23 lung, with UO-31 renal, in the test with TK-10 renal, in the test on MDA-MB-435, with SNB-19 CNS and with K-562 leukemia was above 100 µM in each case. The TGI in the test on OVCAR-3 ovarian, with RPMI-8226 leukemia and in the test on CAKI-1 renal was above 100 µM in each case.

For the compound `CCCCC[C@H]1C/C=C2/C(=O)C=C[C@@H]2C/C=C\CCCC(=O)O1`, the GI50 in the test on NCI-H23 lung is 0.16 µM; with UO-31 renal, 0.0902 µM; in the test on TK-10 renal, 0.171 µM; with EKVX NSCLC it was 0.172 µM; in the test with MDA-MB-435, 0.169 µM; in the test with SNB-19 CNS it was 0.479 µM. The GI50 with K-562 leukemia was 0.136 µM; in the test on OVCAR-3 ovarian, 0.182 µM; in the test on RPMI-8226 leukemia, 0.117 µM. Further, the TGI with NCI-H23 lung was found to be 0.713 µM; in the test with UO-31 renal, 0.171 µM; in the test with TK-10 renal, 0.41 µM; with EKVX NSCLC, 1.97 µM; in the test on MDA-MB-435 it was 0.588 µM; in the test on SNB-19 CNS it was 7.45 µM. Also, the TGI in the test on K-562 leukemia was determined as 22 µM; in the test on OVCAR-3 ovarian it was 0.664 µM; in the test on RPMI-8226 leukemia it was 0.366 µM.

`NC(=S)c1cccc(C2Nc3ccccc3O2)c1` (stereo not drawn): the TGI in the test on NCI-H23 lung, with UO-31 renal, in the test on TK-10 renal, with EKVX NSCLC, in the test with MDA-MB-435 and in the test on SNB-19 CNS was above 100 µM throughout. Besides, the TGI in the test on K-562 leukemia, in the test with OVCAR-3 ovarian and in the test with CAKI-1 renal was above 100 µM in each case.

For `CCCC(=O)Nc1cc(/C=C/C(=O)N2C[C@@H]3C[C@]34C2=CC(=O)c2[nH]cc(C)c24)n(C)c1`, the GI50 in the test on NCI-H23 lung was 0.0119 µM; with EKVX NSCLC, 0.172 µM; in the test with MDA-MB-435 it was 0.184 µM; with SNB-19 CNS, 0.18 µM; in the test with RPMI-8226 leukemia, 0.193 µM; in the test with CAKI-1 renal, 0.0901 µM. Also, the TGI in the test with NCI-H23 lung is 0.645 µM and 0.0939 µM; in the test with UO-31 renal it was 4.34 µM; in the test on MDA-MB-435, 1.05 µM and 0.471 µM; in the test with SNB-19 CNS it was 25 µM and 11.3 µM; in the test on K-562 leukemia, 25 µM; in the test on OVCAR-3 ovarian, 1.2 µM. Besides, the TGI in the test with RPMI-8226 leukemia is 3.72 µM and 0.757 µM; in the test with CAKI-1 renal, 0.571 µM and 0.529 µM.

With `C/C(=N\NC(=S)N1CCCC1)c1ccccn1`, the GI50 with NCI-H23 lung was below 0.01 µM; in the test with UO-31 renal, below 0.011 µM; in the test on TK-10 renal, 0.105 µM; with MDA-MB-435 it was 0.0299 µM; in the test on SNB-19 CNS it was 0.112 µM; with K-562 leukemia, below 0.01 µM. Moreover, the results for the GI50 in the test on OVCAR-3 ovarian, in the test with RPMI-8226 leukemia and in the test with CAKI-1 renal were below 0.01 µM, below 0.01 µM and 0.0353 µM, respectively. For the same compound, the TGI is 42.8 µM in the test on NCI-H23 lung; 3.18 µM with UO-31 renal; 13.7 µM in the test with TK-10 renal; 21.8 µM with MDA-MB-435; 14.7 µM with SNB-19 CNS; above 55.9 µM with K-562 leukemia. Also, the results for the TGI in the test with OVCAR-3 ovarian, with RPMI-8226 leukemia and in the test with CAKI-1 renal were 12.1 µM, 15.6 µM and 6.86 µM, respectively.

As for `CSCc1ncc(-c2ccc(C(F)(F)F)cc2)c(NC2CCCCCC2)n1`, the GI50 with NCI-H23 lung, in the test with UO-31 renal, with TK-10 renal, with MDA-MB-435, in the test with SNB-19 CNS and with K-562 leukemia was above 10 µM throughout. The GI50 with OVCAR-3 ovarian, with RPMI-8226 leukemia and with CAKI-1 renal was above 10 µM each time. Further, the TGI with NCI-H23 lung, in the test on UO-31 renal, in the test on TK-10 renal, in the test with MDA-MB-435, with SNB-19 CNS and in the test with K-562 leukemia was above 10 µM in each case. Moreover, the TGI in the test with OVCAR-3 ovarian, in the test with RPMI-8226 leukemia and in the test with CAKI-1 renal was above 10 µM each time.

Consider `O=C(CC1(O)CCCCC1)OC1CCCC1`, for which the TGI in the test with NCI-H23 lung, in the test on UO-31 renal, in the test on TK-10 renal, with EKVX NSCLC, in the test on MDA-MB-435 and in the test on SNB-19 CNS was above 100 µM each time. The TGI in the test with OVCAR-3 ovarian and in the test on CAKI-1 renal was above 100 µM throughout.

On to `CN1C2C=CC(=O)C1C(C#N)C2` (stereo not drawn), for which the TGI in the test on NCI-H23 lung is 87.9 µM and > 100 µM; in the test on UO-31 renal, 39 µM and > 100 µM; with TK-10 renal, above 100 µM; with EKVX NSCLC, 49.6 µM and > 100 µM; in the test with MDA-MB-435 it was above 100 µM; in the test on SNB-19 CNS it was above 100 µM. Also, the TGI with K-562 leukemia and with OVCAR-3 ovarian was above 100 µM each time. Further, the GI50 is 19.1 µM and 39.8 µM with UO-31 renal; 20.6 µM and 44.2 µM in the test on EKVX NSCLC.

In the case of `COc1ccc(C2=NNC(c3sc(Cl)nc3Cl)C2)cc1` (stereo not drawn), the GI50 was 10.6 µM with NCI-H23 lung; 6.62 µM in the test with UO-31 renal; 3.25 µM with MDA-MB-435; 20.8 µM in the test with SNB-19 CNS; 3.63 µM with K-562 leukemia; 3.26 µM in the test with OVCAR-3 ovarian. Besides, the GI50 with RPMI-8226 leukemia was 3.86 µM; with CAKI-1 renal it was 11.8 µM. The TGI with NCI-H23 lung was 26.7 µM; in the test with UO-31 renal, 20.3 µM; with MDA-MB-435, 16.7 µM; in the test on SNB-19 CNS it was 68.6 µM; in the test on K-562 leukemia, 36.8 µM; with OVCAR-3 ovarian, 8.79 µM. Also, the TGI was found to be 19.2 µM in the test on RPMI-8226 leukemia and 39.4 µM in the test with CAKI-1 renal.

In the case of `Nc1ccccc1SC(/C=C/NNC1=NC(c2ccccc2)C(c2ccccc2)=NN1)c1ccccc1` (stereo not drawn), the TGI in the test on NCI-H23 lung is 21.4 µM; with UO-31 renal, 18.4 µM; with TK-10 renal it was 33.3 µM; in the test on EKVX NSCLC, 29 µM; in the test on SNB-19 CNS, 43.8 µM; with K-562 leukemia, 35.7 µM. For the same compound, the TGI in the test with OVCAR-3 ovarian was 26.1 µM; in the test with RPMI-8226 leukemia, 10.1 µM; with CAKI-1 renal it was 26.4 µM.

As to `C=C(c1ccccc1)c1cc2c(=O)[nH]ccc2n1C`, the TGI is above 100 µM in the test on NCI-H23 lung; 66.1 µM with UO-31 renal; above 100 µM with TK-10 renal; above 100 µM in the test with EKVX NSCLC; above 100 µM with SNB-19 CNS; 46.3 µM in the test on K-562 leukemia. Further, the TGI with OVCAR-3 ovarian, in the test on RPMI-8226 leukemia and in the test with CAKI-1 renal was above 100 µM each time.

On to `C=C1C(=O)O[C@@H]2C[C@@H](C)[C@@H]3C=CC(=O)[C@@]3(C)[C@@H](OC(=O)CCCC(=O)O[C@H]3[C@@H]4C(=C)C(=O)O[C@@H]4C[C@@H](C)[C@@H]4C=CC(=O)[C@]43C)[C@H]12`, for which the TGI worked out at 0.275 µM in the test with NCI-H23 lung; 0.289 µM in the test with UO-31 renal; 0.296 µM in the test on TK-10 renal; 0.264 µM with EKVX NSCLC; 0.0329 µM in the test with MDA-MB-435; 2.56 µM with SNB-19 CNS. Moreover, the figures for the TGI in the test with K-562 leukemia, in the test on OVCAR-3 ovarian and with CAKI-1 renal were 0.0363 µM, 0.275 µM and 0.187 µM, respectively.

Consider `CCOC(=O)NN1C(=O)C(=P(c2ccccc2)(c2ccccc2)c2ccccc2)C(C(=O)OC)=C1C`, for which the TGI in the test with NCI-H23 lung, in the test with UO-31 renal, with TK-10 renal, in the test with EKVX NSCLC, in the test with SNB-19 CNS and in the test with K-562 leukemia was above 100 µM each time. The TGI in the test with OVCAR-3 ovarian, in the test on RPMI-8226 leukemia and in the test with CAKI-1 renal was above 100 µM each time.

With `CCNc1ccc2c(c1)C(=O)N(OS(C)(=O)=O)C2=O`, the TGI with NCI-H23 lung, in the test on UO-31 renal, with TK-10 renal, in the test on EKVX NSCLC, with MDA-MB-435 and in the test on SNB-19 CNS was above 100 µM each time. Besides, the TGI with OVCAR-3 ovarian is above 100 µM; with RPMI-8226 leukemia it was 87.3 µM; with CAKI-1 renal it was above 100 µM.

For the compound `CN(CCOc1ccc(NS(C)(=O)=O)cc1)CCc1ccc(NS(C)(=O)=O)cc1`, the GI50 with NCI-H23 lung, with UO-31 renal, in the test on TK-10 renal, in the test on MDA-MB-435, in the test on SNB-19 CNS and in the test on K-562 leukemia was above 100 µM each time. For the same compound, the GI50 in the test on OVCAR-3 ovarian, in the test on RPMI-8226 leukemia and in the test on CAKI-1 renal was above 100 µM throughout. For the same compound, the TGI with NCI-H23 lung, in the test on UO-31 renal, with TK-10 renal, with MDA-MB-435, with SNB-19 CNS and in the test with K-562 leukemia was above 100 µM throughout. Moreover, the TGI with OVCAR-3 ovarian, in the test on RPMI-8226 leukemia and in the test with CAKI-1 renal was above 100 µM in each case.

With `O=C(O)C(Cc1ccccc1)N1C(=O)/C(=C/C(Cl)=C/c2ccc([N+](=O)[O-])cc2)SC1=S` (stereo not drawn), the GI50 was 2.13 µM in the test with NCI-H23 lung; 1.59 µM in the test with UO-31 renal; 2.59 µM in the test on EKVX NSCLC; 2.27 µM with MDA-MB-435; 3.01 µM with K-562 leukemia; 1.76 µM in the test on OVCAR-3 ovarian. The GI50 in the test on RPMI-8226 leukemia is 3.22 µM; in the test with CAKI-1 renal, 2.28 µM. Also, the TGI was 4.86 µM in the test with NCI-H23 lung; 3.1 µM with UO-31 renal; 7.29 µM in the test with EKVX NSCLC; 6 µM in the test on MDA-MB-435; above 100 µM in the test with K-562 leukemia; 3.51 µM in the test with OVCAR-3 ovarian. For the same compound, the TGI in the test on RPMI-8226 leukemia was above 100 µM; in the test on CAKI-1 renal, 5.09 µM.
